Source: article PMC8602401 (Scientific Reports, 2021)
*1 amine or outer side, *2 acyl side, *3 side chain or, on linkers, in order; H or OH if unused. Where a SMILES comes first, the peptide text is derived from it. Side-chain parts run from the residue outwards. [ ]: non-standard residue; d: D form. The star is where a group is joined. γGlu = O=C(O)[C@H](CCC(=O)[*:2])N[*:1]; αMeF = C[C@](N)(Cc1ccccc1)C(=O)O; αMeK = C[C@](N)(CCCCN)C(=O)O; Lauroyl = CCCCCCCCCCCC(=O)*; αMeS = C[C@](N)(CO)C(=O)O; AEEA = NCCOCCOCC(=O)O; Aib = CC(C)(N)C(=O)O

How the values were obtained:
[1] = EScalate equilibrium shift assay, rat plasma; type: in vitro ADME; conditions: rat; EScalate equilibrium shift, five dilutions of plasma in PBS, 1 h at room temperature, HPLC-QTOF MS; read-out: Fraction unbound peptide (%), rat
[2] = system: rat plasma protein; experiment: EScalate equilibrium shift assay, rat plasma; type: in vitro ADME; conditions: EScalate equilibrium shift assay
[3] = system: diet-induced obese (DIO) mouse model; experiment: Body weight, blood glucose and plasma insulin in diet-induced obese mouse model; type: in vivo; conditions: DIO mice
Procedure: Male 20-week-old C57Bl/6 J mice were single-housed for approximately 14 weeks with ad libitum access to water and 60% high-fat diet (D12492, Research Diets). Mice were randomized into groups of 12 mice per group on baseline body weight, 6 h fasting glucose and 6 h fasting insulin. Over 21 days, mice received daily subcutaneous injections of 10 nmol/kg of test peptides or placebo (50 mM Tris–HCl, 150 mM mannitol, 0.02% polysorbate 80; pH 8.0). Body weight was measured daily and fasting glucose and insulin levels were measured on day 14 following a 6-h fast. Blood was collected via tail-snip and glucose was measured with an Ascensia Breeze 2 glucometer (Bayer, Mishawaka, IN, USA). Insulin was measured in plasma using a Meso Scale rat/insulin kit (Meso Scale Discovery, Rockville, MD, USA).

[4] = Pharmacokinetics of oral tablets in dogs; type: in vivo; conditions: oral tablets 20 mg/dog, semaglutide: 300 mg SNAC, uncoated, MEDI7219: 100 mg NaCDC and 200 mg PG, pH 5.5 enteric, n = 9
[5] = system: HFHF fed dogs; experiment: Dog model of obesity and insulin resistance (HFHF fed dogs), oral tablets; type: in vivo; conditions: for plasma glucose excursions after oral glucose challenge: 10–40 min after glucose, P < 0.05, n = 7–11 per group
Procedure: For the single-dose study, dogs were randomized on baseline glucose levels to receive MEDI7219 1 mg or 10 mg or placebo tablets in the morning following an overnight fast (7–11 dogs per group). Ninety minutes after tablet administration, dogs received an oral glucose bolus (200 mg/mL at a 5 mL/kg volume calculated on body weight prior to HFHF feeding), and blood glucose (blood collected via peripheral vein) was measured with an AlphaTRAK glucometer system (Zoetis, Parsippany, NJ, USA) at –90, 0, 10, 20, 30, 40, 50, 60, 75, 90, 120, 180 and 240 min after glucose administration. Approximately 12 weeks later, dogs entered the multiple-dose study and received either MEDI7219 10 mg (n = 12) or placebo tablets (n = 6) once daily for 14 days. Dogs received two cups of HFHF canine diet per day, with feeding 3 h postdose during the 14-day study. Dogs had access to water ad libitum throughout the study. Food intake and body weight were monitored daily. On day 14, after overnight fasting, dogs received their final dose followed by an oral glucose and acetaminophen bolus 90 min after administration. Blood glucose was measured as described previously, and plasma acetaminophen levels were measured by LC/MS method at the same time points.

[6] = 10 nmol/kg daily subcutaneous, day 14, n = 12 per group

SMILES: CCCCCCCCCCCC(=O)N[C@@H](CCC(=O)NCCOCCOCC(=O)NCCOCCOCC(=O)NCCCC[C@H](NC(=O)[C@H](C)NC(=O)[C@@H](NC(=O)[C@](C)(Cc1ccccc1)NC(=O)[C@H](CCC(=O)O)NC(=O)[C@](C)(CCCCN)NC(=O)[C@H](C)NC(=O)[C@H](C)NC(=O)[C@H](CCC(=O)O)NC(=O)CNC(=O)[C@H](CCC(=O)O)NC(=O)[C@H](CC(C)C)NC(=O)[C@H](CCCCNC(=O)COCCOCCNC(=O)COCCOCCNC(=O)CC[C@H](NC(=O)CCCCCCCCCCC)C(=O)O)NC(=O)[C@H](CO)NC(=O)[C@](C)(CO)NC(=O)[C@@H](NC(=O)[C@H](CC(=O)O)NC(=O)[C@H](CO)NC(=O)[C@@H](NC(=O)[C@](C)(Cc1ccccc1)NC(=O)[C@H](CO)NC(=O)CNC(=O)[C@H](CCC(=O)O)NC(=O)C(C)(C)NC(=O)[C@@H](N)Cc1c[nH]cn1)[C@@H](C)O)C(C)C)[C@@H](C)CC)C(=O)N[C@H](C(=O)N[C@H](C(=O)N[C@@H](CCC(=O)O)C(=O)NCC(=O)NCC(N)=O)C(C)C)C(C)C)C(=O)O [MEDI7219] (H-H[Aib]EGS[αMeF]TSDV[αMeS]SK([AEEA-AEEA-γGlu-Lauroyl])LEGEAA[αMeK]E[αMeF]IAK([AEEA-AEEA-γGlu-Lauroyl])VVEGG-NH2)
- fraction unbound at 1 h [1]: 0.006
- peptide bound to plasma proteins, rat [2]: over 97%
- Body weight change (%) ([3]; 10 nmol/kg daily subcutaneous over 21 days, n = 12 per group, Fig. 3b): −17.0%
- body weight reduction after 21 days ([3]; 10 nmol/kg daily subcutaneous, 21 days, n = 12 per group): 17.0%
- 6-h fasting blood glucose – day 14 [3, 6]: 133.0 mg/dL
- 6-h fasting plasma insulin – day 14 [3, 6]: 0.74 ng/mL
- AUC0-inf ([4]; arithmetic mean (% CV)): 13,500 (54.2) ng·h/mL
- CL/F (oral clearance) ([4]; arithmetic mean (% CV)): 1,880 (52.1) mL/h
- Cmax ([4]; arithmetic mean (% CV)): 1,450 (63.2) ng/mL
- F (bioavailability, systemic fraction) ([4]; arithmetic mean (% CV)): 5.92 (54.2) %
- Tmax ([4]; median (min–max)): 1.5 (1.0–4.5) hours
- t½ ([4]; plasma, LC/MS, arithmetic mean (% CV)): 9.8 (13.2) hours
- body weight change over 14 days ([5]; once-daily 10 mg oral tablets, 14 days, placebo + 0.71%, P < 0.05, n = 12): –4.86%
- glucose excursions in oral glucose tolerance test, day 14 ([5]; once-daily 10 mg oral tablets, fasted, postdose day 14, versus placebo, P < 0.01): significant improvements in glucose excursions
- peak plasma acetaminophen concentration (gastric emptying), day 14 ([5]; once-daily 10 mg oral tablets, oral acetaminophen with glucose bolus, versus placebo): significantly reduced at 20–40 min (P < 0.05) and delayed
- cumulative food intake over 14 days ([5]; once-daily 10 mg oral tablets, versus placebo, P < 0.05): significantly decreased cumulative food intake
- plasma glucose excursions after oral glucose challenge ([5]; single dose 1 mg oral tablet, versus placebo): statistically significantly improved
- plasma glucose excursions after oral glucose challenge ([5]; single dose 10 mg oral tablet, versus placebo): statistically significantly improved
